According to publication PMC5493921 (Royal Society Open Science, 2017):

What was measured:
[1] = biological target: T1, ZfBGD2 (Zygaena filipendulae, UniProt A0A1W1EGN8); type: cell-based
T1 construct: expressed with and without (*) predicted native N-terminal signal peptide; retained in cells

[2] = biological target: T2, ZfGBA1 (Zygaena filipendulae, UniProt A0A1W1EGM7); type: cell-based
T2 construct: expressed with and without (*) predicted native N-terminal signal peptide; retained in cells
T2 sequence (A0A1W1EGM7 entry or part of it): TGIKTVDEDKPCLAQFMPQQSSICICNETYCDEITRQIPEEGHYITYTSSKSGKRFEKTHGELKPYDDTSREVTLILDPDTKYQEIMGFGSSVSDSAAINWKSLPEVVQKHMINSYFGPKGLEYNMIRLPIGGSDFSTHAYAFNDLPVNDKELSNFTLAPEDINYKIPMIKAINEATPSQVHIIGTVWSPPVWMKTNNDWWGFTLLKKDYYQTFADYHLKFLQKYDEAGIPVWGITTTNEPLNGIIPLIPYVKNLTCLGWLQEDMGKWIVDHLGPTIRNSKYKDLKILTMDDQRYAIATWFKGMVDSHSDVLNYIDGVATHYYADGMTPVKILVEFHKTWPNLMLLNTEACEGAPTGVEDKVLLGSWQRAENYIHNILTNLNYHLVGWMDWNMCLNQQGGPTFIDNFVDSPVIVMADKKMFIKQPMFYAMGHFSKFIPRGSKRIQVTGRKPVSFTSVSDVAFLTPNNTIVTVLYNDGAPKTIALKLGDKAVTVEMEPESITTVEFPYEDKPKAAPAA

T1 sequence (A0A1W1EGN8 19-524 limits assumed): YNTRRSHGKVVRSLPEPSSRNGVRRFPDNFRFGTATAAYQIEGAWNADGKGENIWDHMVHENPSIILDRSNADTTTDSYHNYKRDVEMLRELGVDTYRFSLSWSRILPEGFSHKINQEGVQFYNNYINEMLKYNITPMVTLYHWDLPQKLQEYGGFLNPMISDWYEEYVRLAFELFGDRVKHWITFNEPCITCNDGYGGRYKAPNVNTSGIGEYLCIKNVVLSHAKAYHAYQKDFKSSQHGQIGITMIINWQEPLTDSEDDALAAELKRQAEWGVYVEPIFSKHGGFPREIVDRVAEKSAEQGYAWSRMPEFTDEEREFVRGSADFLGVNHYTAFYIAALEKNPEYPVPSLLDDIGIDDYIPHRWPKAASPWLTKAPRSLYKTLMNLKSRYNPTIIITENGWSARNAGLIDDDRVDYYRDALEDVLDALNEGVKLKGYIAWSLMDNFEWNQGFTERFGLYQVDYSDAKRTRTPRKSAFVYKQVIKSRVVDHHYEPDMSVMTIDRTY

Structure (SMILES) | HCN release from re-suspended Sf9 cells, Feigl-Anger paper and colorimetric [1] | HCN release from re-suspended Sf9 cells, Feigl-Anger paper and colorimetric [2]
CC[C@](C)(C#N)O[C@@H]1O[C@H](CO)[C@@H](O)[C@H](O)[C@H]1O [lot, lotaustralin] | ZfBGD2 and ZfGBA1 also hydrolysed linamarin and lotaustralin | ZfBGD2 and ZfGBA1 also hydrolysed linamarin and lotaustralin
CC(C)(C#N)O[C@@H]1O[C@H](CO)[C@@H](O)[C@H](O)[C@H]1O [lin, linamarin] | ZfBGD2 and ZfGBA1 also hydrolysed linamarin and lotaustralin | ZfBGD2 and ZfGBA1 also hydrolysed linamarin and lotaustralin
